# Reference: paper PMC9238271, “The quorum sensing peptide EntF* promotes colorectal cancer metastasis in mice: a new factor in the host-microbiome interaction” (BMC Biology, 2022)
# How the values were obtained:
# [1] = system: EntF*-mediated E-cadherin downregulation in HCT-8 cells; assay: Antagonist activity analysis by Western blot; type: cell-based
# Experimental: (§1) HCT-8, HT-29, and HT-116 cells were grown in DMEM medium supplied with 10% fetal bovine serum (FBS) and 1% penicillin-streptomycin. Caco-2 cells were grown in DMEM medium supplied with 10% FBS, 1% non-essential amino acid NEAA), and 1% penicillin-streptomycin. Cells were cultured at 37 °C and 5% CO2. As cells reached confluency, they were detached using 0.25% Trypsin-EDTA.
# For Western blot analyses, HCT-8 (n = 15), HCT-116 (n = 12), Caco-2 (n = 6), and HT-29 (n = 12) cells were seeded in 6-well plates at a density of 1 × 10^6 cells/well. Twenty-four hours after seeding, all cell lines were treated with 1 μM EntF* or a placebo solution. HCT-8 cells were also tested for responsiveness to 1 μM EntF* synthetic alanine-derived analogs. For antagonist activity analysis, HCT-8 cells were treated with 1 μM Nef-M1 or 1 μM EntF*A1 alone or in combination with 500 nM EntF*. After 24 h, cells were detached from the surface and lysed in RIPA buffer (Thermo Scientific). Protein concentration was determined using the modified Lowry protein assay kit (Thermo Scientific), according to the manufacturer’s instructions. […]
# The Kolmogorov-Smirnov test was used to assess if data obtained were normally distributed. […] Cohen’s d values were calculated as a measure of the effect size when similar standard deviations for both groups were found, and sample sizes were the same.
# [2] = system: luciferase-transfected HCT-8/E11 cells injected into the cecal wall; assay: Orthotopic mouse model: macroscopic number of tumor nodules on the cecum; type: in vivo, female athymic nude mice (Swiss nu/nu)
# Experimental: Six-week-old female athymic nude mice (Swiss nu/nu) were anesthetized, and a minimally invasive midline laparotomy was performed to localize the cecum. The cecum was then gently pulled out, and luciferase-transfected HCT-8/E11 cells (1 × 10^6 cells) in 20 μL serum-free DMEM medium with Matrigel (1:1) were injected into the cecal wall. Before implantation, cells were treated with EntF* (10^2 nM), Phr0662 (10^2 nM), vehicle (PBS), or TGFα positive control (0.1 μg mL^−1) solutions for 5 days. The cecum was then carefully placed back into the abdominal cavity and the surgical incision was closed with two layers of sutures with PDS 6-0. […] Once a week, mice were examined for tumor growth and metastases using bioluminescent imaging with the IVIS Lumina II (Perkin Elmer, Belgium) after i.p. injection with 200 μL luciferin (150 mg kg^−1). After 6 weeks, mice were euthanized using cervical dislocation, and the liver, diaphragm, lungs, cecum, duodenum, and peritoneum were macroscopically examined for the presence of tumor nodules. Liver and lung tissues were then fixed in formalin for 24 h and stored in 70% ethanol for maximum 3 days before embedding in paraffin. Next, a hematoxylin and eosin (H&E) staining was performed on 8 μm sections, and 3 sections per mouse were visualized using microscopy. Slides from tumor-bearing mice were analyzed by two blinded, independent investigators using the scoring system described in Additional file 5: Table S3. In case of differences, slides were scored by a third blinded, independent investigator for consensus.
# The Kolmogorov-Smirnov test was used to assess if data obtained were normally distributed. For sample size n < 10, non-parametric tests (Mann-Whitney U test) were performed directly. Slope comparison was based on linear regression analysis. Bootstrapped medians and Hedges G-values were used to calculate the effect size when sample sizes were different between the groups. Cohen’s d values were calculated as a measure of the effect size when similar standard deviations for both groups were found, and sample sizes were the same.
# [3] = system: E-cadherin expression in Caco-2 cells; assay: Western blot of E-cadherin expression, Caco-2 cells; type: cell-based
# Experimental: as §1
# For Western blot analyses, HCT-8 (n = 15), HCT-116 (n = 12), Caco-2 (n = 6), and HT-29 (n = 12) cells were seeded in 6-well plates at a density of 1 × 10^6 cells/well. Twenty-four hours after seeding, all cell lines were treated with 1 μM EntF* or a placebo solution. HCT-8 cells were also tested for responsiveness to 1 μM EntF* synthetic alanine-derived analogs. For antagonist activity analysis, HCT-8 cells were treated with 1 μM Nef-M1 or 1 μM EntF*A1 alone or in combination with 500 nM EntF*. After 24 h, cells were detached from the surface and lysed in RIPA buffer (Thermo Scientific). Protein concentration was determined using the modified Lowry protein assay kit (Thermo Scientific), according to the manufacturer’s instructions. Protein samples were diluted to the same concentration (4 μg/μL) with water and diluted again 1:1 using 2x Laemmli buffer. After that, samples were boiled for 5 min at 95 °C to denature proteins and centrifuged for 5 min at 16,000g; supernatants were used for Western blot analyses. Equal amounts of total protein (20 μg/lane) were separated by SDS-PAGE on an Any kD^TM gel (Bio-Rad ) and then transferred to a PVDF membrane. Before incubation with antibodies, non-specific binding sites on the membranes were blocked using 5% skimmed milk solution (1 h). TBS buffer with 0.05% Tween 20 was used for all washing steps. Membranes were incubated overnight at 4 °C with an anti-E-cadherin primary antibody (1/1000 dilution). An HRP-conjugated anti-rabbit antibody (1/2000 dilution, 1 h incubation) was used for chemiluminescent detection. Membranes were incubated with the detection substrate for 5 min and signal detection was performed using the ChemiDoc EZ imager and Image Lab software (Bio-Rad). […]
# [4] = system: E-cadherin expression in HCT-8 cells; assay: Western blot of E-cadherin expression, HCT-8 cells (EntF*, alanine and D-amino acid analogs); type: cell-based
# Experimental: as §1
# For Western blot analyses, HCT-8 (n = 15), HCT-116 (n = 12), Caco-2 (n = 6), and HT-29 (n = 12) cells were seeded in 6-well plates at a density of 1 × 10^6 cells/well. Twenty-four hours after seeding, all cell lines were treated with 1 μM EntF* or a placebo solution. HCT-8 cells were also tested for responsiveness to 1 μM EntF* synthetic alanine-derived analogs. For antagonist activity analysis, HCT-8 cells were treated with 1 μM Nef-M1 or 1 μM EntF*A1 alone or in combination with 500 nM EntF*. After 24 h, cells were detached from the surface and lysed in RIPA buffer (Thermo Scientific). Protein concentration was determined using the modified Lowry protein assay kit (Thermo Scientific), according to the manufacturer’s instructions. Protein samples were diluted to the same concentration (4 μg/μL) with water and diluted again 1:1 using 2x Laemmli buffer. After that, samples were boiled for 5 min at 95 °C to denature proteins and centrifuged for 5 min at 16,000g; supernatants were used for Western blot analyses. Equal amounts of total protein (20 μg/lane) were separated by SDS-PAGE on an Any kD^TM gel (Bio-Rad ) and then transferred to a PVDF membrane. Before incubation with antibodies, non-specific binding sites on the membranes were blocked using 5% skimmed milk solution (1 h). TBS buffer with 0.05% Tween 20 was used for all washing steps. Membranes were incubated overnight at 4 °C with an anti-E-cadherin primary antibody (1/1000 dilution). An HRP-conjugated anti-rabbit antibody (1/2000 dilution, 1 h incubation) was used for chemiluminescent detection. Membranes were incubated with the detection substrate for 5 min and signal detection was performed using the ChemiDoc EZ imager and Image Lab software (Bio-Rad). Signal intensity was normalized against the total protein content in each lanes.
# A quantitative approach was used to evaluate the importance of each amino acid, where the Fisher’s LSD p-values of (1) multiple comparisons between EntF* and the alanine (ALA) scan and (2) multiple comparisons between different peptides of the ALA scan are combined. Subsequently, based on the combined P-score, the amino acids were classified in 5 classes using a hierarchical cluster analysis and confirmed using the Jenks natural breaks algorithm with K = 5. CombinedPscore=1-PPBSvsALAscan*PEntF*vsALAscan
structure (smiles),measurement,setting,value
"CC(C)C[C@@H]1NC(=O)[C@H](CO)NC(=O)[C@H](Cc2ccccc2)NC(=O)[C@H](C(C)C)NC(=O)[C@@H](NC(=O)[C@H](CCC(=O)O)NC(=O)[C@@H](NC(=O)[C@H](CC(C)C)NC(=O)[C@H](CC(N)=O)NC(=O)[C@@H](N)CO)C(C)C)CSSC[C@@H](C(=O)N[C@@H](CC(N)=O)C(=O)O)NC(=O)[C@H](CCCCN)NC(=O)[C@H](CCCCN)NC(=O)[C@H](Cc2ccccc2)NC1=O (single isomer, unassigned) [EntF*]","E-cadherin level, EntF* only","[1]; HCT-8 cells, EntF* only, 24 h, relative to control, n = 15",62%
same,"Relative E-cadherin level (% of control), mean",[1]; mean of the replicates,62.0
same,"effect size class by Hedges' G, number of nodules in the cecum","[2]; after a 6-week treatment, compared to the placebo group",medium
same,Mean amount of nodules,"[2]; macroscopic evaluation caecum, mean of the group",11.5
same,effect on E-cadherin expression in Caco-2 cells,"[3]; 1 μM EntF* or CXCL12, 24 h, n = 6",statistically significant reduction
same,"Relative E-cadherin in different cell lines, Average","[3]; CaCo-2 cells, average of n = 6",40.1
same,effect on E-cadherin levels in HCT-8 cells,"[4]; 24 h, n = 15",significant decrease
same,Relative E-cadherin decrease,"[4]; Ala-scan sheet, Blot 19 (single blot), chemiluminescence band, placebo lane = 100",54.8007
same,E-cadherin expression relative to H2O control (= 100),"[4]; Ala-scan sheet, Blot 20 (single blot), chemiluminescence band, placebo lane = 100",67.4208
same,Relative E-cadherin decrease,"[4]; Ala-scan sheet, Blot 21 (single blot), chemiluminescence band, placebo lane = 100",65.0177
same,E-cadherin expression relative to H2O control (= 100),"[4]; Ala-scan sheet, Blot 24 (single blot), chemiluminescence band, Norm. Vol. relative to placebo lane = 100",28.5
same,E-cadherin expression relative to H2O control (= 100),"[4]; Ala-scan sheet, Blot 25 (single blot), chemiluminescence band, Norm. Vol. relative to placebo lane = 100",21.0
same,E-cadherin expression relative to H2O control (= 100),"[4]; Ala-scan sheet, Blot 26 (single blot), chemiluminescence band, Norm. Vol. relative to placebo lane = 100",35.9
same,E-cadherin expression relative to H2O control (= 100),"[4]; Ala-scan sheet, Blot 27 (single blot), chemiluminescence band, Norm. Vol. relative to placebo lane = 100",217.9
same,E-cadherin expression relative to H2O control (= 100),"[4]; Ala-scan, Blot 11 (single blot replicate), normalized band volume relative to Placebo = 100.0",93.8
same,E-cadherin expression relative to H2O control (= 100),"[4]; Ala-scan, Blot 12 (single blot replicate), normalized band volume relative to Placebo = 100.0",85.9
same,E-cadherin expression relative to H2O control (= 100),"[4]; Ala-scan, Blot 13 (single blot replicate), normalized band volume relative to Placebo = 100.0",94.6
same,E-cadherin expression relative to H2O control (= 100),"[4]; Ala-scan, Blot 14 (single blot replicate), normalized band volume relative to Placebo = 100.0",84.9
same,E-cadherin expression relative to H2O control (= 100),"[4]; Ala-scan, Blot 18 (single blot replicate), normalized band volume relative to Placebo = 100.0",74.8
same,E-cadherin expression relative to H2O control (= 100),"[4]; D-scan, Blot 1 (replicate), Norm. Vol. relative to H2O lane = 100.0, chemiluminescence",92.9
same,E-cadherin expression relative to H2O control (= 100),"[4]; D-scan, Blot 2 (replicate), Norm. Vol. relative to H2O lane = 100.0, chemiluminescence",90.1
same,E-cadherin expression relative to H2O control (= 100),"[4]; D-scan, Blot 3 (replicate), Norm. Vol. relative to H2O lane = 100.0, chemiluminescence",85.4
same,E-cadherin expression relative to H2O control (= 100),"[4]; D-scan, Blot 4 (replicate), Norm. Vol. relative to H2O lane = 100.0, chemiluminescence",88.3
same,E-cadherin expression relative to H2O control (= 100),"[4]; D-scan, Blot 6 (replicate), Norm. Vol. relative to H2O lane = 100.0, chemiluminescence",95.4
